Measurements published in US20110152078A1, “Pesticidal Compound Mixtures” (BAYER CROPSCIENCE AG, priority 2009, published 2011).

Experiments:
Type in all cases: in vivo
[1] = system: green peach aphid (Myzus persicae); experiment: Myzus persicae test (Example A), spray on infested cabbage leaves; conditions: single compound
Method: (§1) To produce a suitable preparation of active compound, 1 part by weight of active compound is mixed with the stated amount of solvent and emulsifier, and the concentrate is diluted with emulsifier-containing water to the desired concentration.
(§2) Cabbage leaves (Brassica oleracea) which are heavily infested by the green peach aphid (Myzus persicae) are treated by being sprayed with the preparation of the active compound at the desired concentration.
(§3) After the specified period of time, the mortality in % is determined. 100% means that all the aphids have been killed; 0% means that none of the aphids have been killed.

[2] = system: larvae of the fall army worm (Spodoptera frugiperda); experiment: Spodoptera frugiperda test (Example C), sprayed cabbage leaves; conditions: single compound
Method: as §1
Cabbage leaves (Brassica oleracea) are treated by being sprayed with the preparation of the active compound at the desired concentration and are infested with larvae of the fall army worm (Spodoptera frugiperda) as long as the leaves are still moist.
(§4) After the specified period of time, the mortality in % is determined. 100% means that all the caterpillars have been killed; 0% means that none of the caterpillars have been killed. According to the present application in this test e.g. the following combinations show a synergistic effect in comparison to the single compounds: […]

[3] = system: cotton aphid (Aphis gossypii); experiment: Aphis gossypii test (Example D), spray on infested cotton leaves; conditions: single compound
Method: Solvent: 7 parts by weight of dimethylformamide Emulsifier: 2 parts by weight of alkylaryl polyglycolether
as §1
Cotton leaves (Gossypium hirsutum) which are heavily infested by the cotton aphid (Aphis gossypii) are treated by being sprayed with the preparation of the active compound at the desired concentration.
as §3

[4] = system: green peach aphid (Myzus persicae); experiment: Myzus persicae test (Example E), spray on infested cabbage leaves; conditions: single compound
Method: as §1, §2, §3

[5] = system: larvae of the mustard beetle (Phaedon cochleariae); experiment: Phaedon cochleariae larvae test (Example B), sprayed cabbage leaves; conditions: 144 h, single compound, after 6 d
Method: as §1
Cabbage leaves (Brassica oleracea) are treated by being sprayed with the preparation of the active compound at the desired concentration and are infested with larvae of the mustard beetle (Phaedon cochleariae) as long as the leaves are still moist.
as §4, with “beetle larvae” for “caterpillars”

[6] = Myzus persicae, 144 h, 500 g/ha, after 6 d

For `Cn1cc(C(=O)Nc2ccc(F)cc2-c2ccc(Cl)c(Cl)c2)c(C(F)F)n1` [Bixafen, bixafen], the “Mortality in % after 6 d” value ([1]; 500 g/ha) was 0% and the “Mortality in % after 6 d” value ([2]; 500 g/ha) was 17%.
In the case of `CSC1=N[C@@](C)(c2ccccc2)C(=O)N1Nc1ccccc1` [Fenamidone, fenamidone], the mortality at 200 g/ha ([3]; Aphis gossypii, 144 h, 200 g/ha, after 6 d) is reported as 0% and the mortality at 200 g/ha ([4]; Myzus persicae, 144 h, 200 g/ha, after 6 d) is reported as 0%.
In the case of `O=C(NCCc1ncc(C(F)(F)F)cc1Cl)c1ccccc1C(F)(F)F` [Fluopyram, fluopyram], the mortality at 500 g/ha [1, 6] is reported as 0% and the mortality at 500 g/ha ([5]; 500 g/ha) is reported as 0%.
With `CO/N=C(/C1=NOCCO1)c1ccccc1Oc1ncnc(Oc2ccccc2Cl)c1F` [Fluoxastrobin, fluoxastrobin] the mortality at 500 g/ha [1, 6] was 0%.
For `CNC(=O)/C(=N/OC)c1ccccc1Oc1ccccc1` [Metominostrobin, metominostrobin], the mortality at 500 g/ha [1, 6] was 0%.
With `Cc1nn(C)c(F)c1C(=O)Nc1ccccc1C(C)CC(C)C` (stereo not drawn) [Penflufen, penflufen] the “Mortality in % after 6 d” value ([3]; 200 g/ha) was 0% and the “Mortality in % after 6 d” value ([4]; 200 g/ha) was 0%.
Compound `COC(=O)N(OC)c1ccccc1COc1ccn(-c2ccc(Cl)cc2)n1` [Pyraclostrobin, pyraclostrobin] has a mortality at 500 g/ha [1, 6] of 0%.
`CC1(C)[C@H](C=C(Cl)Cl)[C@H]1C(=O)OCc1c(F)c(F)cc(F)c1F` [Transfluthrin] gave a mortality at 20 g/ha ([1]; Myzus persicae, 144 h, 20 g/ha, after 6 d) of 70%, a mortality at 100 g/ha ([1]; Myzus persicae, 144 h, 100 g/ha, after 6 d) of 80% and a mortality at 20 g/ha ([5]; 20 g/ha) of 0%. It also gave a mortality at 4 g/ha ([2]; Spodoptera frugiperda, 144 h, 4 g/ha, after 6 d) of 50%, a mortality at 10 g/ha ([3]; Aphis gossypii, 144 h, 10 g/ha, after 6 d) of 5% and a mortality at 10 g/ha ([4]; Myzus persicae, 144 h, 10 g/ha, after 6 d) of 0%.
Compound `CON=C(C(=O)OC)c1ccccc1CON=C(C)c1cccc(C(F)(F)F)c1` [Trifloxystrobin, trifloxystrobin] has a mortality at 500 g/ha [1, 6] of 0%.
